Legend:
[1] = system: soluble epoxide hydrolase (sEH); test: Fluorescent assay for mouse and human soluble epoxide hydrolase (CMNPC substrate); type: biochemical; settings: substrate CMNPC 5 μM, 30° C.
Description: Fluorescent Assay for Mouse and Human Soluble Epoxide Hydrolase Recombinant mouse sEH (MsEH) and human sEH (HsEH) were produced in a baculovirus expression system as previously reported. Grant et al., J. Biol. Chem., 268:17628-17633 (1993); Beetham et al., Arch. Biochem. Biophys., 305:197-201 (1993). The expressed proteins were purified from cell lysate by affinity chromatography. Wixtrom et al., Anal. Biochem., 169:71-80 (1988). Protein concentration was quantified using the Pierce BCA assay using bovine serum albumin as the calibrating standard. The preparations were at least 97% pure as judged by SDS-PAGE and scanning densitometry. They contained no detectable esterase or glutathione transferase activity which can interfere with the assay. The assay was also evaluated with similar results in crude cell lysates or homogenate of tissues. The IC50s for each inhibitor were determined according to the following procedure: […] Jones P. D. et. al.; Analytical Biochemistry 2005; 343: pp. 66-75) Bis/Tris HCl 25 mM pH 7.0 containing 0.1 mg/mL of BSA (buffer […] at 0.25 mM in DMSO. Mother solution of enzyme in buffer A (Mouse sEH at 6 μg/mL and Human sEH at 5 μg/mL). Inhibitor dissolved in DMSO at the appropriate concentration. In a black 96 well plate, fill all the wells with 150 μL of buffer A. Add 2 μL of DMSO in well A2 and A3, and then add 2 μL of inhibitor solution in A1 and A4 through A12. Add 150 μL of buffer A in row A, then mix several time and transfer 150 μL to row B. Repeat this operation up to row H. The 150 μL removed from row H is discarded. Add 20 μL of buffer A in column 1 and 2, then add 20 μL of enzyme solution to column 3 to 12. Incubate the plate for 5 minutes in the plate reader at 30° C. During incubation prepare the working solution of substrate by mixing 3.68 mL of buffer A (4×0.920 mL) with 266 μL (2×133 μL) of substrate solution). At t=0, add 30 μL of working substrate solution with multi-channel pipette labeled “Briggs 303” and start the reading ([S]final: 5 μM). Read with ex: 330 nm (20 nm) and em: 465 nm (20 nm) every 30 second for 10 minutes. The velocities are used to analyze and calculate the IC50s.

| Structure (SMILES) | % Inhibition ([1]; Conc. 50 nM) | also measured |
| --- | --- | --- |
| O=C(Nc1ccc(C(F)(F)F)cc1)Nc1ccc(S(=O)(=O)Nc2ccc(Cl)cc2)cc1 [Compound 25, N-(4-Chloro-phenyl)-4-[3-(4-trifluoromethyl-phenyl)-ureido]-benzenesulfonamide] | 99% | – |
| CNS(=O)(=O)c1cccc(NC(=O)Nc2ccc(C(F)(F)F)cc2)c1 [Compound 12, N-methyl-3-[3-(4-trifluoromethylphenyl)ureido]benzenesulfonamide] | 85% | melting point: 238 to 240 °C |
| NS(=O)(=O)c1cccc(NC(=O)Nc2ccc(C(F)(F)F)cc2)c1 [Compound 4, 3-[3-(4-Trifluoromethyl-phenyl)-ureido]-benzenesulfonamide] | 75% | – |
| NS(=O)(=O)c1ccc(NC(=O)NC23CC4CC(CC(C4)C2)C3)cc1 [Compound 1, 4-(3-Adamantan-1-yl-ureido)-benzenesulfonamide] | – | % Inhibition ([1]; Conc. 500 nM): 92% |
| O=C(Nc1ccc(C(F)(F)F)cc1)Nc1cccc(S(=O)(=O)Nc2ccc(Cl)cc2)c1 [Compound 26, N-(4-Chloro-phenyl)-3-[3-(4-trifluoromethyl-phenyl)-ureido]-benzenesulfonamide] | 99% | melting point: 196 to 198 °C |
| NS(=O)(=O)c1cccc(NC(=O)NC23CC4CC(CC(C4)C2)C3)c1 [Compound 2, 3-(3-Adamantan-1-yl-ureido)-benzenesulfonamide] | – | % Inhibition ([1]; Conc. 500 nM): 94% |
| CC(=O)NS(=O)(=O)c1cccc(NC(=O)Nc2ccc(C(F)(F)F)cc2)c1 [Compound 20, N-(3-(3-(4-(trifluoromethyl)phenyl)ureido)phenylsulfonyl)aceta-mide] | – | % Inhibition ([1]; Conc. 5000 nM): 85%; melting point: 115 to 121 °C |

More lines, main results first:

| % Inhibition ([1]; Conc. 50 nM) | Structure (SMILES) | also measured |
| --- | --- | --- |
| 91% | O=C(Nc1ccc(C(F)(F)F)cc1)Nc1ccc(S(=O)(=O)NCCN2CCOCC2)cc1 [Compound 7, N-(2-Morpholin-4-yl-ethyl)-4-[3-(4-trifluoromethyl-phenyl)-ureido]-benzenesulfonamide] | – |
| 93% | O=C(Nc1ccc(C(F)(F)F)cc1)Nc1cccc(S(=O)(=O)N2CCOCC2)c1 [Compound 28, 1-[3-(Morpholine-4-sulfonyl)-phenyl]-3-(4-trifluoromethyl-phenyl)-urea] | – |
| 95% | O=C(Nc1ccc(C(F)(F)F)cc1)Nc1ccc(S(=O)(=O)N2CCOCC2)cc1 [Compound 27, 1-[4-(Morpholine-4-sulfonyl)-phenyl]-3-(4-trifluoromethyl-phenyl)-urea] | – |
| 80% | O=C(O)CCCNS(=O)(=O)c1ccc(NC(=O)Nc2ccc(C(F)(F)F)cc2)cc1 [Compound 23, 4-{4-[3-(4-Trifluoromethyl-phenyl)-ureido]-benzenesulfonylamino}-butyric acid] | melting point: 172 to 175 °C |
| 94% | O=C(Nc1ccc(C(F)(F)F)cc1)Nc1cccc(S(=O)(=O)NCCN2CCOCC2)c1 [Compound 8, N-(2-Morpholin-4-yl-ethyl)-3-[3-(4-trifluoromethyl-phenyl)-ureido]-benzenesulfonamide] | – |
| 90% | CC(C)N1CCN(S(=O)(=O)c2ccc(NC(=O)Nc3ccc(C(F)(F)F)cc3)cc2)CC1 [Compound 15, 1-[4-(4-Isopropyl-piperazine-1-sulfonyl)-phenyl]-3-(4-trifluoromethyl-phenyl)-urea] | – |
| 92% | CC(C)N1CCN(S(=O)(=O)c2cccc(NC(=O)Nc3ccc(C(F)(F)F)cc3)c2)CC1 [Compound 16, 1-[3-(4-Isopropyl-piperazine-1-sulfonyl)-phenyl]-3-(4-trifluoromethyl-phenyl)-urea] | – |

Source: patent publication US20080207621A1, “SOLUBLE EPOXIDE HYDROLASE INHIBITORS” (Arete Therapeutics, Inc., priority 2006, published 2008)
